Values quoted from earlier work, collected in patent publication US20200197494A1, “PEPTIDE COMPOSITIONS AND METHODS OF USE” (Dauntless Pharmaceuticals, priority 2017, published 2020).

Conditions: subcutaneous administration; background statement

C[C@@H](O)[C@@H]1NC(=O)[C@H](CCCCN)NC(=O)[C@@H](Cc2c[nH]c3ccccc23)NC(=O)[C@H](Cc2ccccc2)NC(=O)[C@@H](NC(=O)[C@H](N)Cc2ccccc2)CSSC[C@@H](C(=O)N[C@H](CO)[C@@H](C)O)NC1=O [octreotide, D-phenylalanyl-L-cysteinyl-L-phenylalanyl-D-tryptophyl-L-lysyl-L-threonyl-N-[2-hydroxy-1-(hydroxymethyl)propyl]-L-Cysteinamide, cyclic (2→7)-disulfide]
peptide present in the blood stream (bioavailability): ~100%
